In general, IC50 refers to the concentration needed to halve the response being measured.

The values below come from US10005756B2, “Pyrrolidinone derivatives as MetAP-2 inhibitors” (Merck Patent GmbH, priority 2014, dated 2018).

The subject of the experiment is human umbilical vein endothelial cells (HUVEC). The experiment in a line: HUVEC proliferation quantified by BrdU incorporation. It is filed as cell-based. Particulars: HUVEC, read-out: IC50 HUVEC. On the procedure:
Determination of the Proliferation Inhibition by Inhibitors of Methionine Aminopeptidase 2 in the BrdU Proliferation Test (Cellular Assay)
After detachment of the cells by means of trypsin/EDTA, the number of living cells is determined, and the cells are sown in a density of 1000 cells per cavity in a total volume of 175 μl (cavities are coated in advance either with supplemented culture medium for 1-2 hours at 37° C. or with 1.5% gelatine for 0.5-2 hours at 37° C.). After cultivation for 24 hours, the test substances are added in various concentrations (for example final concentrations 30 μM to 0.03 nM in 10-fold dilution steps) and a volume of 25 μl. The DMSO concentration is kept constant at 0.3%. […] To this end, the cells are treated with a fixative for 30 min at room temperature and subsequently incubated with a peroxidase-labelled anti-BrdU antibody (diluted 1:100 in antibody dilution buffer) for 60 min at room temperature. […] The colour development is stopped after 15 min by addition of 25 μl of a 1M sulfuric acid solution. […] The controls used are cavities containing DMSO-treated cells (100% control) or empty cavities (blank value).
HUVEC Proliferation Quantified by BrdU Incorporation
HUVEC Means Human Umbilical Vein Endothelial Cells
HUVEC proliferation is measured after a 5 day incubation period using incorporation of BrdU as a measure of cell cycle activity. Cells are incubated in the presence or absence of test substances. During the last 18 to 24 hours of the incubation period BrdU is added to the medium. BrdU is incorporated into the DNA as the cells progress through S-phase (DNA synthesis) of the cell cycle. The cells are fixed and the amount of BrdU incorporated can be quantified using a commercial ELISA for detection of BrdU.
HUVEC are routinely cultured in EGM MV medium and used between passages 3 and 8.
All substances are run in triplicate.
Reference compounds are run in every assay.
Data is analyzed using the Assay Explorer program. Briefly, the blank is subtracted from all values, the triplicates are averaged and normalized to the untreated. EC50 is determined from a 4-parameter general sigmoidal curve (Hill fit y=(s0−slnf)/(1+(x/AC50)^nHill)+slnf) in Assay Explorer, Symyx). The processed data (EC50 or % Effect if no EC50 if reached, Efficacy) is uploaded directly from Assay Explorer to the MSRDB.
For orientation: Incorporation of labelled thymidine or its analogues reports DNA synthesis.

Regarding `O=C(NCc1cc(F)cc(Cl)c1)[C@@]1(O)CCN(c2cnc3[nH]cc(I)c3c2)C1=O` [Compound A34], the IC50 is 6.7 nM.
As for `O=C(NCc1cc(F)cc(Cl)c1)C1(O)CCN(c2ccc3c(c2)CC(C2CC2)N3)C1=O` (centres unmarked) [Compound A47], the IC50 is 40 nM.
Turning to `O=C(NCc1cc(F)cc(Cl)c1)[C@@]1(O)CCN(c2cncnc2)C1=O` [Compound A26], the IC50 was found to be 11000 nM.
In the case of `O=C(NCc1cc(F)cc(Cl)c1)[C@@]1(O)CCN(c2cnc3[nH]cc(Br)c3c2)C1=O` [Compound A33] it was 5.4 nM.
Turning to `NCCCNC(=O)c1cc2cc(N3CC[C@](O)(C(=O)NCc4cc(F)cc(Cl)c4)C3=O)ccc2[nH]1` [Compound A40], the IC50 came out at 200 nM.
Regarding `O=C(NCc1cc(F)cc(Cl)c1)C1(O)CCN(c2ccn[nH]2)C1=O` (centres unmarked) [Compound A15], the IC50 was 5200 nM.
`O=C(NCc1cc(F)cc(Cl)c1)C1(O)CCN(c2ccc(C(F)F)cc2)C1=O` (centres unmarked) [Compound A60]: the IC50 is 1800 nM.
Consider `CC(=O)Nc1cc2cc(N3CCC(O)(C(=O)NCc4cc(F)cc(Cl)c4)C3=O)ccc2oc1=O` (centres unmarked) [Compound A17], for which the IC50 was 1100 nM.
